Experimental data reported in patent EP0338042B1, “COMPOSITION AND METHOD FOR TREATING HEPATITIS VIRUS INFECTIONS USING 1-(2'-DEOXY-2'-FLUORO-BETA-D-ARABINOFURANOSYL)-5-ETHYLURACIL” (priority 1987, dated 1989).
“And” between values parts separate entries of the source, which are not always exact repeats. Equal values may be shown once. Read-outs that look alike come from different tables or passages of the source.

What was measured:
[1] = system: HL-60 CELLS; test: Inhibition of cell growth; type: cell-based; conditions: Homo sapiens, HL-60, read-out: ED50 FOR INHIBITING CELL GROWTH IN HL-60 CELLS
[2] = system: L-1210 CELLS; test: Inhibition of thymidine incorporation into DNA; type: cell-based, rodent; conditions: Mus musculus, L1210, read-out: ED50 FOR […] INC[…] DNA, L-1210 CELLS; read-out: ED50 FOR INHIBITING THYMIDINE INCORPORATION INTO DNA, L-1210 CELLS
[3] = system: HSV-1(F); conditions: plaque reduction in Vero cells, cited from earlier work
[4] = Toxicity in dogs
[5] = system: HSV-1 INFECTED VERO CELLS; test: Incorporation of 2-14C-labeled nucleoside into DNA of cells; type: cell-based, African green monkey; conditions: [2-14C] labeled nucleoside
Description: (§1) There was no detectable incorporation of FEAU radioactivity into the DNA of either L-1210 or Vero cell lines, but substantial amounts of FMAU radioactivity were incorporated into the DNA of both cell lines. When HSV-1 infected Vero cells were exposed to ¹⁴C-labeled FEAU and FMAU, both nucleosides incorporated into the DNA of these virus-infected cells.

[6] = system: VERO; test: as above; type: cell-based, African green monkey; conditions: FEAU also not detectable at 100 μM
Description: as §1

[7] = system: Vero cells; conditions: cytotoxic effect measured in rapidly dividing cells; read-out: ID₅₀; cited from earlier work
[8] = cited from earlier work
[9] = system: P-815 CELLS; test: Inhibition of thymidine incorporation into DNA; type: cell-based, rodent; conditions: Mus musculus, P815, read-out: ED50 FOR […] INC[…] DNA, P-815 CELLS; read-out: ED50 FOR INHIBITING THYMIDINE INCORPORATION INTO DNA, P-815 CELLS
[10] = system: woodchuck hepatitis virus (WHV); test: Inhibition of WHV replication in chronically infected woodchucks (DNA polymerase activity); type: in vivo, woodchucks (Marmota monax); conditions: for WHV replication by day 60: all 5 animals
Method: All woodchucks bearing chronic active hepatitis virus (Hantz, supra) were administered FMAU twice daily by interperitoneal injections of FMAU in the following dosages:
Studies were then undertaken to evaluate FMAU and FEAU in this animal model using woodchucks naturally chronically-infected with woodchuck hepatitis virus (24). It was assumed that these nucleosides would be anabolized to their nucleoside triphosphates within the animal. WHV replication was measured periodically by the endogenous DNA polymerase activity and by the detection of WHV DNA by the dot-blot hybridization assay. Three different dosages of FMAU and FEAU were investigated. FMAU at 2 mg/kg/day x 5, (given intraperitoneally TABLE VIII
In accordance with the procedures of Example 2, the FEAU inhibition of WHV replication was further studied at different doses administered orally to woodchucks through stomach tubes. Two groups of woodchucks with different initial WHV replication values were examined.
Seven woodchucks with high WHV replication were tested. High replication was defined as over 1000 counts per minute of DNA polymerase activity, and the mean replication was 1600.
Seven woodchucks with low WHV replication were tested. Low replication was defined as lower than 1000 counts per minute of DNA polymerase activity, and the mean replication was 600-800.

[11] = system: HSV-2(G); conditions: plaque reduction in Vero cells, cited from earlier work
[12] = target: HSV-1 (STRAIN KOS) TK (Human herpesvirus 1, UniProt P17402); test: Phosphorylation by thymidine kinase relative to thymidine; type: biochemical; conditions: thymidine at 400 µM
Description: (§2) It is generally accepted that the selective anti-herpes activity of 2′-fluoro-arabinosylpyrimidine nucleosides is associated in large measure with their ability to be recognized as good substrates for HSV-specified thymidine kinase (TK), but not by the host TK (14, 15). […] By contrast, FEAU is a very poor substrate for the host HL-60 derived TKs (13). […] Their data also indicate that, in uninfected Vero cells, FEAU would be phosphorylated at a very low rate in the presence of thymidine.

[13] = target: T1, HL-60 CELLS MIT[…] (Homo sapiens, UniProt O00142); test: as above; type: biochemical; conditions: thymidine at 400 µM
T1 construct: cytosol and mitochondrial TK's derived from the HL-60 human cell line; endogenous in cells; host or cells: HL-60
T1 sequence (O00142 34-265): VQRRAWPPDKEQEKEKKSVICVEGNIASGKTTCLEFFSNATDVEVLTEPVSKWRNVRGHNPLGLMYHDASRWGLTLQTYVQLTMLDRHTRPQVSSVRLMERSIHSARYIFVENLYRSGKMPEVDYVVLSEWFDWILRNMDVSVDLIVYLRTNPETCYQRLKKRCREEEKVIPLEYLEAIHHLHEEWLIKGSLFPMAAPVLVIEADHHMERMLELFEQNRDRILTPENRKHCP
Description: as §2

[14] = system: simian varicella virus (SVV); test: Simian varicella virus infection in the African green monkey; conditions: for VIREMIA - MEAN PFU ON DAYS P.I. 3: IV twice daily for ten days from 48 hours after inoculation; for VIREMIA - MEAN PFU ON DAYS P.I. 5 / VIREMIA - MEAN PFU ON DAYS P.I. 7 / VIREMIA - MEAN PFU ON DAYS P.I. 9 / VIREMIA - MEAN PFU ON DAYS P.I. 11: IV twice daily for ten days
[15] = 0.2 mg/kg/day, FMAU x 5, FEAU x 10
[16] = FEAU 3 MG/KG/DAY, one line per monkey
[17] = FEAU 10 MG/KG/DAY, one line per monkey
[18] = FEAU 30 MG/KG/DAY, one line per monkey

Sequence of HSV-1 (STRAIN KOS) TK (P17402 whole entry, looked up): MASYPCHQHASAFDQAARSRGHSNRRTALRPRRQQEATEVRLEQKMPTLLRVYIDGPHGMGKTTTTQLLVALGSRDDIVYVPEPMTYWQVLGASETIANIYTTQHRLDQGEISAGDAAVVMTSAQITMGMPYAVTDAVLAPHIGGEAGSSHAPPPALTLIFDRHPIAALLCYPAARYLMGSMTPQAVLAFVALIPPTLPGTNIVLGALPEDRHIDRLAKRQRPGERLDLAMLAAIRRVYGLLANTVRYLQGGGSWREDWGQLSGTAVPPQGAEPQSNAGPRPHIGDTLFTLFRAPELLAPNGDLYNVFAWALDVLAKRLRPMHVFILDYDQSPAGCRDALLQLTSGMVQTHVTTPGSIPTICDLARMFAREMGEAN

CCc1cn([C@@H]2O[C@H](CO)[C@@H](O)[C@@H]2F)c(=O)[nH]c1=O [FEAU, 1-(2'-deoxy-2'-fluoro-beta-D-arabino-furanosyl)-5-ethyl-uracil]
EC50 [1]: 2060 µM | EC50 [2]: 630 µM | EC50 ([3]; read-out: HSV-1(F) ED₅₀): 0.024 µM | EC90 ([3]; read-out: HSV-1(F) ED₉₀): 0.26 µM | toxicity ([4]; 50 mg/kg/day x 10, preliminary studies): moderate toxicity | lethal dose ([4]; FMAU i.v. x 5, FEAU x 10 (preliminary)): 100 mg/kg/day | INCORPORATION INTO DNA AT 10μM, HSV-1 INFECTED VERO CELLS [5]: 0.48 p MOLE/10^6 CELLS/HR | INCORPORATION INTO DNA AT 10μM, VERO [6]: NOT DETECTABLE* | CC50 [7]: 200 µM | toxicity ([8]; in vivo experiments with mice): relatively nontoxic | toxicity ([8]; normal (uninfected) mice, 800 mg/kg/day given twice daily for 4 days): non-toxic | EC50 [9]: 700 µM | anti-WHV effect ([10]; 0.04 mg/kg/day x 10): somewhat diminished anti-WHV effect | suppression of viral replication [10, 15]: equally effective | toxicity [10, 15]: nontoxic | inhibitory activity after cessation of drug administration ([10]; 0.2 or 2 mg doses, slow return to pretreatment levels): remained significant over a six-week period | WHV replication by the twenty-third day ([10]; high replication woodchucks (>1000 cpm), oral 0.2 mg/kg/day, four of five still above normal level (50 cpm)): lowered replication values | WHV replication by day 60 ([10]; high replication woodchucks, oral 0.2 mg/kg/day, raised to 1 mg/kg/day on day 24 in four of five): completely inhibited | WHV replication ([10]; i.p. 2 mg/kg/day x 10): almost immediate suppression | weight loss ([10]; in vivo): about 10% | toxicity ([10]; in vivo, ip, 2 mg/kg/day): did not exhibit any toxic effects | toxicity ([10]; in vivo, po, 0.2 mg/kg/day): without any observed toxicity | WHV replication by the twenty-third day ([10]; low replication woodchucks (<1000 cpm), oral 0.04 mg/kg/day, two of five still above normal level): lowered replication values | WHV replication by day 60 ([10]; low replication woodchucks, oral 0.04 mg/kg/day, raised to 0.2 mg/kg/day on day 24 in two of five): completely inhibited | WHV replication ([10]; oral administration, 0.2 mg/kg/day x 10, one woodchuck, preliminary): significant suppression | EC50 ([11]; read-out: HSV-2(G) ED₅₀): 0.24 µM | EC90 ([11]; read-out: HSV-2(G) ED₉₀): 0.91 µM | PERCENTAGE RATES OF PHOSPHORYLATION (RELATIVE TO THYMIDINE), HSV-1 (STRAIN KOS) TK [12]: 82.7% and 42.0% | PERCENTAGE RATES OF PHOSPHORYLATION (RELATIVE TO THYMIDINE), HL-60 CELLS MITOCHONDRIAL TK [13]: 219.0% | minimal effective dose ([14]; Cercopithecine alphaherpesvirus 9, in Primates): ~1 mg/kg/day | RASH -SEVERITY ON DAYS P.I. 9 ([14]; FEAU 1 MG/KG/DAY by stomach tube twice daily for ten days, one line per monkey): ± | VIREMIA - MEAN PFU ON DAYS P.I. 3 [14, 16]: 1 PFU and 0 PFU | VIREMIA - MEAN PFU ON DAYS P.I. 5 [14, 16]: 8 PFU and 1 PFU | VIREMIA - MEAN PFU ON DAYS P.I. 7 [14, 16]: 0 PFU and 1 PFU | VIREMIA - MEAN PFU ON DAYS P.I. 9 [14, 16]: 0 PFU | VIREMIA - MEAN PFU ON DAYS P.I. 11 [14, 16]: 0 PFU | VIREMIA - MEAN PFU ON DAYS P.I. 3 [14, 17]: 1 PFU and 0 PFU | VIREMIA - MEAN PFU ON DAYS P.I. 5 [14, 17]: 14 PFU and 1 PFU | VIREMIA - MEAN PFU ON DAYS P.I. 7 [14, 17]: 5 PFU and 1 PFU | VIREMIA - MEAN PFU ON DAYS P.I. 9 [14, 17]: 0 PFU | VIREMIA - MEAN PFU ON DAYS P.I. 11 [14, 17]: 0 PFU | VIREMIA - MEAN PFU ON DAYS P.I. 3 [14, 18]: 1 PFU and 2 PFU | VIREMIA - MEAN PFU ON DAYS P.I. 5 [14, 18]: 0 PFU | VIREMIA - MEAN PFU ON DAYS P.I. 7 [14, 18]: 0 PFU | VIREMIA - MEAN PFU ON DAYS P.I. 9 [14, 18]: 0 PFU | VIREMIA - MEAN PFU ON DAYS P.I. 11 [14, 18]: 0 PFU | rash ([14]; intravenous route, 30, 10 and 3 mg/kg/day x 10): none of the FEAU-treated monkeys developed rash | hematology tests and serum chemistries ([14]; intravenous route, 30, 10 and 3 mg/kg/day x 10, all treated monkeys): normal | toxicity ([14]; intravenous route, three dose levels up to 30 mg/kg/day x 10): no apparent toxicity | rash ([14]; lower dose of 1 mg/kg/day): prevented development of rash | viremia ([14]; lower dose of 1 mg/kg/day): did not reduce viremia in two of three monkeys | viremia ([14]; oral administration, 10, 3 or 1 mg/kg/day x 10): reduced viremia significantly | toxicity ([14]; oral route, 10 mg/kg/day x 10): without any observed toxicity
